Results from ChEMBL document CHEMBL1201862, “PubChem BioAssay data set” (2004).
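Interpolation was linear, between the two tested concentrations surrounding the appropriate level; five concentrations were tested over 48 hours in 96-well plates. At the GI50, growth is halved.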 Activity calls are given as the source filed them. No stated cut-off is given here; in the data, active = GI50 up to about 1.1 µM and inactive = higher. Non-standard residues stand in square brackets, D forms with d. Residues, ends and D or L forms follow the SMILES beside them. *: point of attachment. Ac5c = NC1(C(=O)O)CCCC1; Cbz = O=C(OCc1ccccc1)*; Boc = CC(C)(C)OC(=O)*; tBu = CC(C)(C)*

What was measured:
Experiment in all cases: DTP human tumour cell line panel, 48 h
[1] = system: A498
[2] = system: HOP-62
[3] = system: HOP-92
[4] = system: HT-29
[5] = system: KM12
[6] = system: LOX IMVI
[7] = system: MDA-MB-435
[8] = system: MOLT-4
[9] = system: Malme-3M
[10] = system: NCI-H23
[11] = system: NCI-H522
[12] = system: OVCAR-3
[13] = system: OVCAR-4
[14] = system: OVCAR-8
[15] = system: SK-MEL-2
[16] = system: SK-MEL-5
[17] = system: SNB-75
[18] = system: UACC-62

Row | Compound | GI50 [1] | GI50 [2] | GI50 [3] | GI50 [4] | GI50 [5] | GI50 [6] | GI50 [7] | GI50 [8] | GI50 [9] | GI50 [10] | GI50 [11] | GI50 [12] | GI50 [13] | GI50 [14] | GI50 [15] | GI50 [16] | GI50 [17] | GI50 [18]
1 | Sc1nc2c(c(-c3nc(S)nc4c3CCCCCCCCCC4)n1)CCCCCCCCCC2 | > 100 µM (inactive) | > 100 µM (inactive) | > 100 µM (inactive) | > 100 µM (inactive) | > 100 µM (inactive) | > 100 µM (inactive) | > 100 µM (inactive) | > 100 µM (inactive) | > 100 µM (inactive) | > 100 µM (inactive) | > 100 µM (inactive) | > 100 µM (inactive) | > 100 µM (inactive) | > 100 µM (inactive) | > 100 µM (inactive) | > 100 µM (inactive) | > 100 µM (inactive) | > 100 µM (inactive)
2 | N#Cc1c(N)sc2c1-c1ccccc1OC2 | 29.3 µM (inactive) | 46.3 µM (inactive) | 44 µM (inactive) | 26.2 µM (inactive) | 38.2 µM (inactive) | 38.1 µM (inactive) | 32.5 µM (inactive) | 17.5 µM (inactive) | 41.2 µM (inactive) | 45.4 µM (inactive) | – | 22.3 µM (inactive) | 26.5 µM (inactive) | – | 38.5 µM (inactive) | 45.3 µM (inactive) | – | 53.7 µM (inactive)
3 | C/C(=N\NC(=S)N(C)CCN(C)C(=S)N/N=C(\C)c1ccccn1)c1ccccn1 | 0.565 µM (active) | 1.67 µM (inactive) | 2.72 µM (inactive) | 0.224 µM (active) | 0.435 µM (active) | 0.811 µM (active) | > 100 µM (inactive) | 0.479 µM (active) | 0.826 µM (active) | 4.38 µM (inactive) | 0.731 µM (active) | 0.174 µM (active) | 0.298 µM (active) | 0.345 µM (active) | 10.1 µM (inactive) | 0.431 µM (active) | 0.56 µM (active) | 2.31 µM (inactive)
4 | CN1C(C)(C)CC(=O)C(Br)C1(C)C (stereo unspecified) | – | > 100 µM (inactive) | > 100 µM (inactive) | > 100 µM (inactive) | > 100 µM (inactive) | > 100 µM (inactive) | > 100 µM (inactive) | > 100 µM (inactive) | > 100 µM (inactive) | > 100 µM (inactive) | > 100 µM (inactive) | > 100 µM (inactive) | > 100 µM (inactive) | > 100 µM (inactive) | > 100 µM (inactive) | > 100 µM (inactive) | 61.8 µM (inactive) | > 100 µM (inactive)
5 | O=C1c2ccccc2CC12Cc1cc3c(cc1C2)CCC3 | 84.1 µM (inactive) | > 100 µM (inactive) | 37.6 µM (inactive) | 21.9 µM (inactive) | 53.5 µM (inactive) | 57.1 µM (inactive) | 34 µM (inactive) | 22.6 µM (inactive) | 22.7 µM (inactive) | > 100 µM (inactive) | 30.5 µM (inactive) | 31.6 µM (inactive) | > 100 µM (inactive) | > 100 µM (inactive) | 31.2 µM (inactive) | 20.5 µM (inactive) | 33.3 µM (inactive) | –
6 | Cn1c2ccc(C3=NCCN3)cc2c2cc(C3=NCCN3)ccc21 | > 100 µM (inactive) | 15.3 µM (inactive) | 13.4 µM (inactive) | 7.82 µM (inactive) | 1.56 µM (inactive) | 49.4 µM (inactive) | 61.8 µM (inactive) | 0.637 µM (active) | 18.2 µM (inactive) | 4.16 µM (inactive) | 0.0775 µM (active) | 42 µM (inactive) | 13.6 µM (inactive) | 28.9 µM (inactive) | 33.5 µM (inactive) | 31.3 µM (inactive) | 78.5 µM (inactive) | –
7 | COc1ccc(Nc2nc(N)c(C(=O)c3cccs3)s2)cc1 | 6.68 µM (inactive) | 16.9 µM (inactive) | 21.1 µM (inactive) | 3.35 µM (inactive) | 2.99 µM (inactive) | 6.67 µM (inactive) | 1.24 µM (inactive) | 2.51 µM (inactive) | 30.1 µM (inactive) | 12.8 µM (inactive) | 5.09 µM (inactive) | 3.47 µM (inactive) | 9.73 µM (inactive) | 19.2 µM (inactive) | 10.9 µM (inactive) | 2.8 µM (inactive) | – | 11.3 µM (inactive)
8 | CSC1=Nc2ccccc2-c2nc3ccccc3cc2C1 | > 100 µM (inactive) | > 100 µM (inactive) | > 100 µM (inactive) | > 100 µM (inactive) | 14.4 µM (inactive) | > 100 µM (inactive) | > 100 µM (inactive) | > 100 µM (inactive) | > 100 µM (inactive) | > 100 µM (inactive) | 69.2 µM (inactive) | > 100 µM (inactive) | > 100 µM (inactive) | > 100 µM (inactive) | > 100 µM (inactive) | > 100 µM (inactive) | – | > 100 µM (inactive)
9 | CCOC(=O)/C=C/c1nc(C#N)c(N)o1 | > 100 µM (inactive) | > 100 µM (inactive) | > 100 µM (inactive) | > 100 µM (inactive) | > 100 µM (inactive) | > 100 µM (inactive) | > 100 µM (inactive) | > 100 µM (inactive) | – | – | – | – | – | > 100 µM (inactive) | > 100 µM (inactive) | > 100 µM (inactive) | > 100 µM (inactive) | > 100 µM (inactive)
10 | COc1cc([N+](=O)[O-])ccc1NC1=CC(=O)CCC1 | > 100 µM (inactive) | > 100 µM (inactive) | > 100 µM (inactive) | > 100 µM (inactive) | > 100 µM (inactive) | > 100 µM (inactive) | > 100 µM (inactive) | > 100 µM (inactive) | > 100 µM (inactive) | > 100 µM (inactive) | – | > 100 µM (inactive) | > 100 µM (inactive) | > 100 µM (inactive) | > 100 µM (inactive) | > 100 µM (inactive) | 27.6 µM (inactive) | > 100 µM (inactive)
11 | Cc1cc(C)n(C(=O)C(C)Sc2nnc(SC(C)C(=O)n3nc(C)cc3C)s2)n1 (stereo unspecified) | > 100 µM (inactive) | > 100 µM (inactive) | > 100 µM (inactive) | > 100 µM (inactive) | > 100 µM (inactive) | > 100 µM (inactive) | > 100 µM (inactive) | > 100 µM (inactive) | > 100 µM (inactive) | > 100 µM (inactive) | – | > 100 µM (inactive) | > 100 µM (inactive) | > 100 µM (inactive) | > 100 µM (inactive) | > 100 µM (inactive) | > 100 µM (inactive) | > 100 µM (inactive)
12 | COc1c(C(=O)/C(=N/Nc2cccc(Cl)c2)C(C)=O)c(O)c(OC)c2occc12 | – | > 100 µM (inactive) | 67.1 µM (inactive) | 95.1 µM (inactive) | > 100 µM (inactive) | 56.4 µM (inactive) | > 100 µM (inactive) | 39.5 µM (inactive) | 60.1 µM (inactive) | > 100 µM (inactive) | > 100 µM (inactive) | > 100 µM (inactive) | – | 60.4 µM (inactive) | > 100 µM (inactive) | > 100 µM (inactive) | 13 µM (inactive) | > 100 µM (inactive)
13 | CCOC(=O)Cn1nnc2cc(Nc3c(C)[n+]([O-])c4cc(F)c(OCC)cc4[n+]3[O-])ccc21 | > 100 µM (inactive) | 27.5 µM (inactive) | 13.6 µM (inactive) | > 100 µM (inactive) | > 100 µM (inactive) | > 100 µM (inactive) | > 100 µM (inactive) | 0.273 µM (active) | – | > 100 µM (inactive) | > 100 µM (inactive) | > 100 µM (inactive) | > 100 µM (inactive) | > 100 µM (inactive) | 32.4 µM (inactive) | > 100 µM (inactive) | – | –
14 | O=C1CCc2ccc3c(c21)CC1(Cc2ccccc2C1)C3 | – | 6.37 µM (inactive) | 5.96 µM (inactive) | 3.71 µM (inactive) | 7.52 µM (inactive) | 2.59 µM (inactive) | 5.98 µM (inactive) | 3.8 µM (inactive) | 10.5 µM (inactive) | 11.6 µM (inactive) | 10.2 µM (inactive) | 4.01 µM (inactive) | 10.5 µM (inactive) | 7.62 µM (inactive) | 14.2 µM (inactive) | 3.38 µM (inactive) | 14.4 µM (inactive) | 7.1 µM (inactive)
15 | O=C1CC(Sc2nc3ccc(I)cc3c(=O)n2Cc2ccccc2)C(=O)NN1 (stereo unspecified) | 12.7 µM (inactive) | 17.4 µM (inactive) | 17.7 µM (inactive) | 18.6 µM (inactive) | 17.2 µM (inactive) | 3.18 µM (inactive) | 17.7 µM (inactive) | 14.3 µM (inactive) | 18.1 µM (inactive) | 15.7 µM (inactive) | 1.94 µM (inactive) | 16 µM (inactive) | 17.4 µM (inactive) | 14.4 µM (inactive) | 17.1 µM (inactive) | 16.2 µM (inactive) | 11.7 µM (inactive) | 15.3 µM (inactive)
16 | COC(=O)C1(NC(=O)C(Cc2ccccc2)NC(=O)C(NC(=O)C(CCCCNC(=O)OC(C)(C)C)NC(=O)C(Cc2c[nH]c3ccccc23)NC(=O)C(Cc2ccccc2)NC(=O)OCc2ccccc2)C(C)OC(C)(C)C)CCCC1 (stereo unspecified) (Cbz-FWK(Boc)T(tBu)F[Ac5c]-OMe; configuration not given here) | > 10 µM (inactive) | 65 µM (inactive) | 68.9 µM (inactive) | > 100 µM (inactive) | > 100 µM (inactive) | 80.9 µM (inactive) | > 100 µM (inactive) | – | > 100 µM (inactive) | > 100 µM (inactive) | 19 µM (inactive) | > 100 µM (inactive) | > 100 µM (inactive) | > 100 µM (inactive) | 6.61 µM (inactive) | 3.96 µM (inactive) | > 100 µM (inactive) | > 100 µM (inactive)
